In patent US20260216294A1, “BETA 2-ADRENERGIC RECEPTOR AGONISTS FOR TREATMENT OR PREVENTION OF MUSCLE WASTING” (ATROGI AB, priority 2023, published 2026):

How the values were obtained:
L6-myotubes [1] = test: Glucose uptake in differentiated L6-myotubes (Biological Example 2); format: cell-based; conditions: for Emax at 10 µM: read-out: Biological example 2 (GU)
Summary of the method: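 Uptake was quantified as radioactivity in 0.2 M NaOH lysates after a 10 min pulse of 50 nM ^3H-2-deoxyglucose. The pulse followed two agonist exposures at 1×10^−5 M final (isoprenaline or test compound): 1 h 40 min, then 20 min in glucose-free medium after washing. L6 myotubes had been starved overnight in medium with 0.5% fatty-acid-free BSA.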

L6-myotubes [2] = test: Measurement of intracellular cAMP levels in differentiated L6-myotubes (Biological Example 3); format: cell-based; conditions: for Emax at 10 µM: 0.25 h
Summary of the method: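 Intracellular cAMP quantified by AlphaScreen after ethanol extraction and lysis of L6 myotubes. Cells were serum-starved overnight, then exposed for 15 min to compound (final 1×10^−5 M) or isoprenaline in IBMX-containing (1 mM) HBSS buffer, pH 7.4.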

[3] = glucose uptake in differentiated L6-myotubes, compound at 10 μM, activity relative to isoproterenol at 10 μM
[4] = intracellular cAMP in differentiated L6-myotubes, compound at 10 μM, activity relative to isoproterenol at 10 μM
[5] = glucose uptake, compound at 10 μM relative to isoproterenol at 10 μM
[6] = intracellular cAMP, compound at 10 μM relative to isoproterenol at 10 μM

| SMILES | Emax at 10 µM (L6-myotubes [1]; [3]) [%] | Emax at 10 µM (L6-myotubes [2]; [4]) [%] | Emax at 10 µM (L6-myotubes [1]; [5]) [%] | Emax at 10 µM (L6-myotubes [2]; [6]) [%] | also measured |
| --- | --- | --- | --- | --- | --- |
| CO[C@H]1CC[C@H](CC(C)(C)NC[C@H](O)c2cncc(F)c2)CC1 [Compound 250, (R)-2-{1,1-dimethyl-2-[(1r,4R)-4-methoxycyclohexyl]ethylamino}-1-(5-fluoro-3-pyridyl)-1-ethanol] | 50 to 75 | < 25 | – | – | – |
| CC(C)(C[C@H]1CC[C@H](C(=O)O)CC1)NC[C@H](O)c1cccc(F)c1 [Compound 355, (1R,4r)-4-{2-[(R)-2-(m-fluorophenyl)-2-hydroxyethylamino]-2-methylpropyl} cyclohexanecarboxylic acid] | 50 to 75 | < 25 | – | – | – |
| CCC[C@@H]1CC[C@H](C(O)c2cccc(O)c2)N1 (stereo in doubt) [Compound 57, m-{(R)-[(2R,5R)-5-propyl-2-pyrrolidinyl] hydroxymethyl}phenol] | – | – | – | – | Biological example 2 (GU) (L6-myotubes [1]; [5]): +++ (If a compound at 10 μM shows activity of more than 75% of that of isoproterenol at 10 μM, the activity is denoted with +++); Biological example 3 (CAMP) (L6-myotubes [2]; [6]): ++ (if it is between 75 and 50% it is denoted with ++) |
| CC(C)(C[C@H]1CC[C@@H](N)CC1)NC[C@H](O)c1cccc(F)c1 [Compound 456] | > 75 | < 25 | – | – | – |
| CC1(C)CC[C@@H]([C@@H](O)c2cccc(F)c2)N1 [Compound 145, (S)-[(S)-5,5-dimethyl-2-pyrrolidinyl](m-fluorophenyl)methanol] | – | – | 25 to 50 | < 25 | – |
| CC(C)(C[C@H]1CC[C@@H](N)CC1)NC[C@H](O)c1cccc(C#N)n1 [Compound 418, 6-[(S)-2-{1,1-dimethyl-2-[(1s,4R)-4-aminocyclohexyl]ethylamino}-1-hydroxyethyl]-2-pyridinecarbonitrile] | 50 to 75 | < 25 | – | – | – |
| CC(C)(C)NC[C@H](O)c1ccc(F)cn1 [Compound 96, (S)-2-(tert-butylamino)-1-(5-fluoro-2-pyridyl)-1-ethanol] | – | – | 50 to 75 | < 25 | – |
| CC(C)(C[C@H]1CC[C@H](NS(C)(=O)=O)CC1)NC[C@H](O)c1cccc(C(F)(F)F)n1 [Compound 461, (S)-2-{1,1-dimethyl-2-[(1r,4S)-4-(mesylamino)cyclohexyl]ethylamino}-1-[6-(trifluoromethyl)-2-pyridyl]-1-ethanol] | 25 to 50 | < 25 | – | – | – |
| CC(C)(C[C@H]1CC[C@@H](C(=O)O)CC1)NC[C@H](O)c1cncc(F)c1 [Compound 324, (1S,4s)-4-{2-[(R)-2-(5-fluoro-3-pyridyl)-2-hydroxyethylamino]-2-methylpropyl} cyclohexanecarboxylic acid] | 25 to 50 | < 25 | – | – | – |
| CC(C)(C[C@H]1CC[C@@H](NS(C)(=O)=O)CC1)NC[C@H](O)c1cccc(C(F)(F)F)n1 [Compound 463] | 50 to 75 | < 25 | – | – | – |
| CS(=O)(=O)Nc1ccc(CC23CCC([C@H](O)c4cccc(F)c4)(CC2)N3)cc1 [Compound 475, (R)-(m-fluorophenyl)(4-{[p-(mesylamino)phenyl]methyl}-7-azabicyclo[[2.2.1]]hept-1-yl)methanol] | 50 to 75 | < 25 | – | – | – |
| CC12CC(C1)[C@H]([C@@H](O)c1ccccc1F)N2 [Compound 212] | > 75 | < 25 | – | – | – |
| CC1(C)CCC[C@H]([C@@H](O)c2cccc(F)c2)N1 [Compound 101] | – | – | 25 to 50 | < 25 | – |
| CCC[C@@H]1CCC[C@H]([C@@H](O)c2ccccc2F)N1 [Compound 107, (S)-[(2R,6R)-6-propyl-2-piperidyl](o-fluorophenyl)methanol] | – | – | 25 to 50 | < 25 | – |
| CCC[C@@H]1CCC[C@@H]([C@H](O)c2cccc(Cl)c2)N1 [Compound 115] | – | – | > 75 | < 25 | – |
| COC(=O)[C@H]1CC[C@H](CCC(C)(C)NC[C@H](O)c2cncc(F)c2)CC1 [Compound 342, methyl (1R,4r)-4-{3-[(R)-2-(5-fluoro-3-pyridyl)-2-hydroxyethylamino]-3-methylbutyl} cyclohexanecarboxylate] | > 75 | < 25 | – | – | – |
| CS(=O)(=O)N[C@H]1CC[C@H](C[C@@H]2CC[C@H]([C@@H](O)c3cccc(F)c3)N2)CC1 [Compound 505, (S)-[(2R,5S)-5-{[(1r,4S)-4-(mesylamino)cyclohexyl]methyl}-2-pyrrolidinyl](m-fluorophenyl)methanol] | < 25 | < 25 | – | – | – |
| CCCCNCC(O)c1cc[nH]c(=O)c1 (stereo not drawn) [Compound 62, 4-[2-(butylamino)-1-hydroxyethyl]-2(1H)-pyridinone] | – | – | 25 to 50 | < 25 | – |

| SMILES | Emax at 10 µM (L6-myotubes [1]; [3]) [%] | Emax at 10 µM (L6-myotubes [2]; [4]) [%] | Emax at 10 µM (L6-myotubes [1]; [5]) [%] | Emax at 10 µM (L6-myotubes [2]; [6]) [%] | also measured |
| --- | --- | --- | --- | --- | --- |
| Oc1ccc(C(O)CNC23CC4CC(CC(C4)C2)C3)cc1 (stereo not drawn) [Compound 11, p-[2-(1-adamantanylamino)-1-hydroxyethyl]phenol] | – | – | 25 to 50 | < 25 | – |
| CCCC(C)NCC(O)c1cc(Cl)c(N)c(Cl)c1 (stereo not drawn) [Compound 22, 1-(4-amino-3,5-dichlorophenyl)-2-(1-methylbutylamino)-1-ethanol] | – | – | > 75 | 50 to 75 | – |
| O[C@H](c1cncc(F)c1)[C@H]1CC[C@H](Cc2ccc(Cl)cc2)N1 [Compound 406, (R)-{(2R,5R)-5-[(p-chlorophenyl)methyl]-2-pyrrolidinyl}(5-fluoro-3-pyridyl)methanol] | > 75 | < 25 | – | – | – |
| CO[C@H]1CC[C@H](C[C@H]2CC[C@H]([C@@H](O)c3cccc(F)c3)N2)CC1 [Compound 334, (S)-[(2R,5R)-5-{[(1r,4R)-4-methoxycyclohexyl]methyl}-2-pyrrolidinyl] (m-fluorophenyl)methanol] | 25 to 50 | < 25 | – | – | – |
| O[C@H](c1cccc(F)c1)C12CCC(COCc3ccc(Cl)cc3)(CC1)N2 [Compound 396, (R)-(4-{[(p-chlorophenyl)methoxy]methyl}-7-azabicyclo[[2.2.1]]hept-1-yl)(m-fluorophenyl)methanol] | > 75 | < 25 | – | – | – |
| CS(=O)(=O)N(Cc1ccccc1)c1ccc(CC23CCC([C@@H](O)c4cccc(F)c4)(CC2)N3)cc1 [Compound 472, (S)-[4-({p-[(benzyl)-N-mesylamino]phenyl}methyl)-7-azabicyclo[[2.2.1]]hept-1-yl](m-fluorophenyl)methanol] | 25 to 50 | < 25 | – | – | – |
| CC(C)(C[C@H]1CC[C@@H](NC(=O)C2CCC2)CC1)NC[C@H](O)c1cccc(F)c1 [Compound 448] | 50 to 75 | < 25 | – | – | – |
| CC1(NC[C@H](O)c2cccc(F)c2)CC1 [Compound 82, (R)-1-(m-fluorophenyl)-2-(1-methylcyclopropylamino)-1-ethanol] | – | – | > 75 | < 25 | – |
| CC12CCC([C@H](O)c3ccccc3Cl)(CC1)N2 [Compound 195, (R)-(o-chlorophenyl)(4-methyl-7-azabicyclo[[2.2.1]]hept-1-yl)methanol] | – | – | > 75 | < 25 | – |
| CC12CC(C1)[C@@H]([C@H](O)c1cccc(Cl)c1)N2 [Compound 209] | 25 to 50 | < 25 | – | – | – |
| O[C@@H](CNCC[C@H]1CC[C@@H](OCc2ccccc2)CC1)c1cncc(F)c1 [Compound 291, (R)-1-(5-fluoro-3-pyridyl)-2-{2-[(1s,4S)-4-(benzyloxy)cyclohexyl]ethylamino}-1-ethanol] | 50 to 75 | < 25 | – | – | – |
| CO[C@H]1CC[C@@H](CCNC[C@H](O)c2cncc(F)c2)CC1 [Compound 238, (R)-1-(5-fluoro-3-pyridyl)-2-{2-[(1s,4S)-4-methoxycyclohexyl]ethylamino}-1-ethanol] | > 75 | < 25 | – | – | – |
| CC(C)(C)NCC(O)c1ccc(O)cc1 (stereo not drawn) [Compound 4, 2-(tert-butylamino)-1-(p-hydroxyphenyl)-1-ethanol] | – | – | > 75 | 25 to 50 | – |
| CC1(C)CC[C@H]([C@@H](O)c2cccc(O)c2)N1 [Compound 111, m-{(S)-[(R)-5,5-dimethyl-2-pyrrolidinyl] hydroxymethyl}phenol] | – | – | 50 to 75 | < 25 | – |
| CC(C)(C[C@H]1CC[C@@H](C(=O)O)CC1)NC[C@H](O)c1cccc(F)c1 [Compound 331, (1S,4s)-4-{2-[(R)-2-(m-fluorophenyl)-2-hydroxyethylamino]-2-methylpropyl} cyclohexanecarboxylic acid] | 25 to 50 | < 25 | – | – | – |
| CN([C@H]1CC[C@H](CC(C)(C)NC[C@H](O)c2cncc(F)c2)CC1)S(C)(=O)=O [Compound 521, (R)-2-{1,1-dimethyl-2-[(1r,4R)-4-(N-mesyl-N-methylamino)cyclohexyl]ethylamino}-1-(5-fluoro-3-pyridyl)-1-ethanol] | 50 to 75 | < 25 | – | – | – |
| COC(=O)[C@H]1CC[C@@H](CC(C)(C)NC[C@H](O)c2cccc(F)c2)CC1 [Compound 327, methyl (1S,4s)-4-{2-[(R)-2-(m-fluorophenyl)-2-hydroxyethylamino]-2-methylpropyl} cyclohexanecarboxylate] | > 75 | < 25 | – | – | – |
| CO[C@H]1CC[C@H](C(C)(C)NC[C@H](O)c2cncc(F)c2)CC1 [Compound 240, (R)-1-(5-fluoro-3-pyridyl)-2-{1-methyl-1-[(1r,4R)-4-methoxycyclohexyl]ethylamino}-1-ethanol] | > 75 | < 25 | – | – | – |
